Among the data in US20260325533A1, “CDK INHIBITOR COMPOUNDS” (ALEKSIA THERAPEUTICS, INC., priority 2023, published 2026) are IC50 values, retold here.

Format in all cases: biochemical
One assay concerns the target CDK2/CCNE1 (Homo sapiens, UniProt P24941). As to the kind of experiment: CDK2 homogeneous time-resolved fluorescence (HTRF) kinase assay. The settings on record: CDK2/CCNE. In outline: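 Compounds were titrated 11-point, half-log from typically 10 μM against 3 nM CDK2/cyclin E1 at 1 mM ATP, with a 20 min enzyme preincubation. Phosphorylation of 50 nM ULight-4E-BP1 peptide over 60 min at 23 °C was detected by europium anti-phospho antibody TR-FRET.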
On the technique in general: TR-FRET usually uses a lanthanide donor and a delayed reading to cut background.

In another assay the target is CDK4/CCND3 (Homo sapiens, UniProt P11802). As to the kind of experiment: CDK4 homogeneous time-resolved fluorescence (HTRF) kinase assay. The note with it: CDK4/CCND. In outline: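 Compounds were preincubated with 1.5 nM CDK4/CCND3 for 20 min at 23 °C in HEPES buffer (pH not given), then reacted 60 min with 1 mM ATP and 50 nM ULight-4E-BP1 (Thr37/46) peptide. EDTA stop, Eu-anti-phospho-4E-BP1 detection; 665/615 nm ratio; IC50 from 11-point half-log titrations from 10 μM.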
CDK4/CCND3, sequence (P11802 whole entry): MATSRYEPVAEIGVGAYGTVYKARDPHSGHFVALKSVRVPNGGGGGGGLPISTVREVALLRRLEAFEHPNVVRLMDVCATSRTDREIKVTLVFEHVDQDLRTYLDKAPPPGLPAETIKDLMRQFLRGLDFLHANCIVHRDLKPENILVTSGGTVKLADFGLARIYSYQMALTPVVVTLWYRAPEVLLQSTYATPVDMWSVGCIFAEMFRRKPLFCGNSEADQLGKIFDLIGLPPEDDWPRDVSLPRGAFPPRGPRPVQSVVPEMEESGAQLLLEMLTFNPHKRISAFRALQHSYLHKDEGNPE
CDK4/CCND3, sequence (P30281 whole entry partner): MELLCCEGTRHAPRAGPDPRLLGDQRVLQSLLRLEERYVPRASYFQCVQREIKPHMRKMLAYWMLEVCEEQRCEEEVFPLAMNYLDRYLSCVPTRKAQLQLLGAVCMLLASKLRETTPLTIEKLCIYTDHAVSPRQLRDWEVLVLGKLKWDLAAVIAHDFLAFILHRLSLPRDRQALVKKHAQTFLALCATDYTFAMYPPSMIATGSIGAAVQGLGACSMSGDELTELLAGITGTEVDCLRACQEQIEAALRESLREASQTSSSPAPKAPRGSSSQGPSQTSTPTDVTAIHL

The target of another assay is CDK6/CCND1 (Homo sapiens, UniProt Q00534). As to the kind of experiment: CDK6 homogeneous time-resolved fluorescence (HTRF) kinase assay. The note with it: CDK6/CCND, 1 mM ATP. In outline:
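1 nM enzyme, 1 mM ATP, 50 nM ULight-4E-BP1 (Thr37/46) peptide, 1% DMSO; 20 min compound preincubation, 60 min reaction, 23 °C. EDTA stop, 2 nM Eu-anti-phospho-4E-BP1 antibody 60 min. TR-FRET 665 nm (or 665/615 ratio); IC50 from 11-point half-log titration, top 10 μM.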

The next assay concerns the target CDK1/CCNB1 (Homo sapiens, UniProt P06493). Put plainly: CDK1 homogeneous time-resolved fluorescence (HTRF) kinase assay. The note with it: >250 nM; CDK1/CCNB; read-out: CDK1/CCNB IC50 >250 nM. In outline:
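HTRF assay with 0.5 nM CDK1/CCNB1, 1 mM ATP, 50 nM ULight-eIF4E-BP1 (Thr37/46) peptide; compound preincubated 20 min, reaction 60 min at 23 °C, EDTA stop, Eu-anti-phospho antibody detection. 11-point half-log titration from 10 μM, 1% DMSO; IC50 from 665 nm or 665/615 signal.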

Setting [1] is: <25 nM, read-out: CDK2/CCNE IC50, <25 nM.
The mark [2] stands for this setting: 25-250 nM, read-out: CDK4/CCND IC50, 25-250 nM.
Where [3] appears, read: 25-250 nM, read-out: CDK6/CCND IC50, 25-250 nM.
Setting [4] is: >250 nM, read-out: CDK4/CCND IC50, >250 nM.
[5] abbreviates: >250 nM, read-out: CDK6/CCND IC50, >250 nM.
Where [6] appears, read: >250 nM, read-out: CDK2/CCNE IC50, >250 nM.
Setting [7] is: 25-250 nM, read-out: CDK2/CCNE IC50, 25-250 nM.

Like-named read-outs stand apart in the source and are kept apart here. Where only a bound is given, the exact number is not on record here.

CDK6/CCND1, sequence (Q00534 whole entry): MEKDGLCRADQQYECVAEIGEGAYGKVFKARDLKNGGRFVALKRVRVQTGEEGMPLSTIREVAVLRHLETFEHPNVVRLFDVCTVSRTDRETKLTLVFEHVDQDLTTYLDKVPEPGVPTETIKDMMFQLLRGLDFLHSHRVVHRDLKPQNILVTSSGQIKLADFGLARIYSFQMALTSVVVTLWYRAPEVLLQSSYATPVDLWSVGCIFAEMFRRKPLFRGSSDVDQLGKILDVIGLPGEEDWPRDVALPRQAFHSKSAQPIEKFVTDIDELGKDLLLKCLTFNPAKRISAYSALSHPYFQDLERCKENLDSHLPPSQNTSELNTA
CDK6/CCND1, sequence (P24385 whole entry partner): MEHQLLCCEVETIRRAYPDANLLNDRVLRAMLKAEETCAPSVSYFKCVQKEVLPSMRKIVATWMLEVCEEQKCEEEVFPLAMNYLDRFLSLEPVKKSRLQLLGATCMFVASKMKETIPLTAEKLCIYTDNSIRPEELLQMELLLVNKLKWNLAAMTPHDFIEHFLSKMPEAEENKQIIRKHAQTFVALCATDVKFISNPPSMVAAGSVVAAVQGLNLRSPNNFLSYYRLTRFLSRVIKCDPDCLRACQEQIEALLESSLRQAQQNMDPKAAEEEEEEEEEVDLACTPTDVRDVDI
CDK1/CCNB1, sequence (P06493 whole entry): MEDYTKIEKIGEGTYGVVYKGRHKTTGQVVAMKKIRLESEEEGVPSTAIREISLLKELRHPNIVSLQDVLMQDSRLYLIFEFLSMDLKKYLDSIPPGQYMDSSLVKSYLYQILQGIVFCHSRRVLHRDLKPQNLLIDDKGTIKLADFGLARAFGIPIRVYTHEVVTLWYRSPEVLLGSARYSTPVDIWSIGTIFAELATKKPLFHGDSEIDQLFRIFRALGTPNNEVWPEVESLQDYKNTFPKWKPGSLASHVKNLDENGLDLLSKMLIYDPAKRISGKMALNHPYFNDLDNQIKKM
CDK1/CCNB1, sequence (P14635 whole entry partner): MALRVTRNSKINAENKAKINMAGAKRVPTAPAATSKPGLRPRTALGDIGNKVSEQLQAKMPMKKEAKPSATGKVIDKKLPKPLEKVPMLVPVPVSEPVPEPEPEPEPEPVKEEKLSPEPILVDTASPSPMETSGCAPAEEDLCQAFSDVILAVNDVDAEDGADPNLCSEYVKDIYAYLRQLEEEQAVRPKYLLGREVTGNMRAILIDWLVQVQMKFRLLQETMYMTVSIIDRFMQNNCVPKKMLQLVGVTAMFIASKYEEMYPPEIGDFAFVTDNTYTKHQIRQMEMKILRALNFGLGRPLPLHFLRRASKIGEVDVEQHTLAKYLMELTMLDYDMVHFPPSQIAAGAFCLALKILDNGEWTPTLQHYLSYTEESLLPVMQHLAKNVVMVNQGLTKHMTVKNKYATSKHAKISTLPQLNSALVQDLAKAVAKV

Turning to `Cc1c(-c2nccc3cnc(Nc4ccc(S(=O)(=O)Nc5ncc(N6CCN(C)CC6)cn5)cc4)cc23)ccc2c1cnn2CC(C)(C)O` [Ex 849, 4-((5-(1-(2-hydroxy-2-methylpropyl)-4-methyl-1H-indazol-5-yl)-2,6-naphthyridin-3-yl)amino)-N-(5-(4-methylpiperazin-1-yl)pyrimidin-2-yl)benzenesulfonamide], the IC50 on CDK2/CCNE1 (setting [1]) was under 25 nM; at CDK4/CCND3 (setting [2]), 25 to 250 nM; on CDK6/CCND1 (setting [3]), 25 to 250 nM; on CDK1/CCNB1, over 250 nM.

As for `Cc1c(-c2nccc3cnc(Nc4ccc(S(=O)(=O)Nc5ncc(N6CCOCC6)cn5)cc4)cc23)ccc2c1cnn2CC(C)(C)O` [Ex 850, 4-((5-(1-(2-hydroxy-2-methylpropyl)-4-methyl-1H-indazol-5-yl)-2,6-naphthyridin-3-yl)amino)-N-(5-morpholinopyrimidin-2-yl)benzenesulfonamide], the IC50 was under 25 nM at CDK2/CCNE1 (setting [1]), over 250 nM on CDK4/CCND3 (setting [4]), over 250 nM at CDK6/CCND1 (setting [5]) and over 250 nM on CDK1/CCNB1.

Regarding `CCOC(=O)c1cn2cc(C#Cc3nccc4cnc(Nc5ccc(S(C)(=O)=O)cc5)cc34)ccc2n1` [Ex 851, ethyl6-((7-((4-(methylsulfonyl)phenyl)amino)-2,6-naphthyridin-1-yl)ethynyl)imidazo[1,2-a]pyridine-2-carboxylate], the IC50 at CDK2/CCNE1 (setting [6]), on CDK4/CCND3 (setting [4]), at CDK6/CCND1 (setting [5]) and on CDK1/CCNB1 was over 250 nM in each case.

Take `C[C@@H]1CN(c2cc(Nc3cc4c(C#Cc5ccc(=O)[nH]n5)nccc4cn3)cnc2O)CCN1C` [Ex 853, (R)-6-((7-((5-(3,4-dimethylpiperazin-1-yl)-6-hydroxypyridin-3-yl)amino)-2,6-naphthyridin-1-yl)ethynyl)pyridazin-3(2H)-one absolute]: the IC50 on CDK2/CCNE1 (setting [7]) is 25 to 250 nM; at CDK4/CCND3 (setting [4]) it was over 250 nM; on CDK6/CCND1 (setting [5]) it was over 250 nM; on CDK1/CCNB1, over 250 nM.

With `CC#Cc1nccc2cnc(Nc3ccc(S(=O)(=O)Nc4nccn4C)cc3)cc12` [Ex 854, N-(1-methyl-1H-imidazol-2-yl)-4-((5-(prop-1-yn-1-yl)-2,6-naphthyridin-3-yl)amino)benzenesulfonamide], the IC50 on CDK2/CCNE1 (setting [1]) was under 25 nM; on CDK4/CCND3 (setting [4]) it was over 250 nM; on CDK6/CCND1 (setting [5]) it was over 250 nM; on CDK1/CCNB1 it was over 250 nM.

For the compound `Cc1c(-c2nccc3cnc(Nc4ccc(S(=O)(=O)Nc5nncn5C)cc4)cc23)ccc2c1cnn2CC(C)(C)O` [Ex 855, 4-((5-(1-(2-hydroxy-2-methylpropyl)-4-methyl-1H-indazol-5-yl)-2,6-naphthyridin-3-yl)amino)-N-(4-methyl-4H-1,2,4-triazol-3-yl)benzenesulfonamide], the IC50 is 25 to 250 nM at CDK2/CCNE1 (setting [7]), over 250 nM at CDK4/CCND3 (setting [4]), over 250 nM on CDK6/CCND1 (setting [5]) and over 250 nM at CDK1/CCNB1.

On to `Cn1ncc2cc(C#Cc3nccc4cnc(Nc5ccc(S(C)(=O)=O)cc5)cc34)ccc21` [Ex 856, 5-((1-methyl-1H-indazol-5-yl)ethynyl)-N-(4-(methylsulfonyl)phenyl)-2,6-naphthyridin-3-amine], for which the IC50 on CDK2/CCNE1 (setting [7]) was 25 to 250 nM; at CDK4/CCND3 (setting [4]), over 250 nM; at CDK6/CCND1 (setting [5]) it was over 250 nM; on CDK1/CCNB1, over 250 nM.

For the compound `CS(=O)(=O)c1ccc(Nc2cc3c(C#Cc4ccc5c(c4)OCO5)nccc3cn2)cc1` [Ex 857, 5-(benzo[d][1,3]dioxol-5-ylethynyl)-N-(4-(methylsulfonyl)phenyl)-2,6-naphthyridin-3-amine], the IC50 on CDK2/CCNE1 (setting [7]) was 25 to 250 nM; on CDK4/CCND3 (setting [4]), over 250 nM; at CDK6/CCND1 (setting [5]), over 250 nM; on CDK1/CCNB1 it was over 250 nM.

Turning to `CSc1ccc(C#Cc2nccc3cnc(Nc4ccc(S(C)(=O)=O)cc4)cc23)cc1` [Ex 858, N-(4-(methylsulfonyl)phenyl)-5-((4-(methylthio)phenyl)ethynyl)-2,6-naphthyridin-3-amine], the IC50 at CDK2/CCNE1 (setting [7]) is 25 to 250 nM; on CDK4/CCND3 (setting [4]), over 250 nM; at CDK6/CCND1 (setting [5]) it was over 250 nM; at CDK1/CCNB1, over 250 nM.

Turning to `Cn1cc2ccc(C#Cc3nccc4cnc(Nc5ccc(S(C)(=O)=O)cc5)cc34)cc2n1` [Ex 859, 5-((2-methyl-2H-indazol-6-yl)ethynyl)-N-(4-(methylsulfonyl)phenyl)-2,6-naphthyridin-3-amine], the IC50 is 25 to 250 nM at CDK2/CCNE1 (setting [7]), over 250 nM at CDK4/CCND3 (setting [4]), over 250 nM on CDK6/CCND1 (setting [5]) and over 250 nM on CDK1/CCNB1.

For `CS(=O)(=O)c1ccc(Nc2cc3c(C#Cc4cc(F)c5cn[nH]c5c4)nccc3cn2)cc1` [Ex 860, 5-((4-fluoro-1H-indazol-6-yl)ethynyl)-N-(4-(methylsulfonyl)phenyl)-2,6-naphthyridin-3-amine], the IC50 at CDK2/CCNE1 (setting [6]), at CDK4/CCND3 (setting [4]), on CDK6/CCND1 (setting [5]) and at CDK1/CCNB1 was over 250 nM throughout.

As to `CS(=O)(=O)c1ccc(Nc2cc3c(C#Cc4ccc5c(O)ncnc5c4)nccc3cn2)cc1` [Ex 861, 7-((7-((4-(methylsulfonyl)phenyl)amino)-2,6-naphthyridin-1-yl)ethynyl)quinazolin-4-ol], the IC50 at CDK2/CCNE1 (setting [7]) is 25 to 250 nM; at CDK4/CCND3 (setting [4]), over 250 nM; on CDK6/CCND1 (setting [5]) it was over 250 nM; on CDK1/CCNB1 it was over 250 nM.

For `CN1CCN(c2ccc(C#Cc3nccc4cnc(Nc5ccc(S(=O)(=O)Nc6ncccn6)cc5)cc34)cc2)CC1` [Ex 864, 4-((5-((4-(4-methylpiperazin-1-yl)phenyl)ethynyl)-2,6-naphthyridin-3-yl)amino)-N-(pyrimidin-2-yl)benzenesulfonamide], the IC50 on CDK2/CCNE1 (setting [7]) is 25 to 250 nM; at CDK4/CCND3 (setting [4]) it was over 250 nM; at CDK6/CCND1 (setting [5]), over 250 nM; on CDK1/CCNB1, over 250 nM.

For the compound `C[C@H]1CN(c2cc(Nc3cc4c(C#Cc5ccc(=O)[nH]n5)nccc4cn3)cnc2O)CCN1C` [Ex 865, (S)-6-((7-((5-(3,4-dimethylpiperazin-1-yl)-6-hydroxypyridin-3-yl)amino)-2,6-naphthyridin-1-yl)ethynyl)pyridazin-3(2H)-one], the IC50 was 25 to 250 nM at CDK2/CCNE1 (setting [7]), over 250 nM at CDK4/CCND3 (setting [4]), over 250 nM at CDK6/CCND1 (setting [5]) and over 250 nM on CDK1/CCNB1.

Turning to `O=c1ccc(C#Cc2nccc3cnc(Nc4cnc(O)c(N5CCN(CCO)CC5)c4)cc23)n[nH]1` [Ex 866, 6-((7-((6-hydroxy-5-(4-(2-hydroxyethyl)piperazin-1-yl)pyridin-3-yl)amino)-2,6-naphthyridin-1-yl)ethynyl)pyridazin-3(2H)-one], the IC50 on CDK2/CCNE1 (setting [7]) is 25 to 250 nM; on CDK4/CCND3 (setting [4]), over 250 nM; on CDK6/CCND1 (setting [5]) it was over 250 nM; at CDK1/CCNB1 it was over 250 nM.

On to `Cc1c(-c2nccc3cnc(Nc4ccc(S(=O)(=O)Nc5nccn5C)cc4)cc23)ccc2c1cnn2CC(C)(C)O` [Ex 867, 4-((5-(1-(2-hydroxy-2-methylpropyl)-4-methyl-1H-indazol-5-yl)-2,6-naphthyridin-3-yl)amino)-N-(1-methyl-1H-imidazol-2-yl)benzenesulfonamide], for which the IC50 on CDK2/CCNE1 (setting [1]) is under 25 nM; on CDK4/CCND3 (setting [2]) it was 25 to 250 nM; at CDK6/CCND1 (setting [3]), 25 to 250 nM; on CDK1/CCNB1, over 250 nM.

As for `Cc1c(-c2nccc3cnc(Nc4ccc(S(=O)(=O)Nc5nc(F)cc(F)n5)cc4)cc23)ccc2c1cnn2CC(C)(C)O` [Ex 868, N-(4,6-difluoropyrimidin-2-yl)-4-((5-(1-(2-hydroxy-2-methylpropyl)-4-methyl-1H-indazol-5-yl)-2,6-naphthyridin-3-yl)amino)benzenesulfonamide], the IC50 was under 25 nM at CDK2/CCNE1 (setting [1]), over 250 nM at CDK4/CCND3 (setting [4]), over 250 nM at CDK6/CCND1 (setting [5]) and over 250 nM on CDK1/CCNB1.

Consider `CCOc1ccc(C#Cc2nccc3cnc(Nc4ccc(S(C)(=O)=O)cc4)cc23)cn1` [Ex 869, 5-((6-ethoxypyridin-3-yl)ethynyl)-N-(4-(methylsulfonyl)phenyl)-2,6-naphthyridin-3-amine], for which the IC50 at CDK2/CCNE1 (setting [7]) was 25 to 250 nM; at CDK4/CCND3 (setting [4]) it was over 250 nM; on CDK6/CCND1 (setting [5]), over 250 nM; on CDK1/CCNB1, over 250 nM.

Consider `CS(=O)(=O)c1ccc(Nc2cc3c(C#Cc4ccc(C(F)(F)F)nc4)nccc3cn2)cc1` [Ex 870, N-(4-(methylsulfonyl)phenyl)-5-((6-(trifluoromethyl)pyridin-3-yl)ethynyl)-2,6-naphthyridin-3-amine], for which the IC50 at CDK2/CCNE1 (setting [6]), at CDK4/CCND3 (setting [4]), on CDK6/CCND1 (setting [5]) and at CDK1/CCNB1 was over 250 nM each time.
